Series [1] relates to BEL7402 (human hepatocellular carcinoma cell line). Description: MTT anti-proliferative assay, BEL7402. The note with it: Homo sapiens, Bel-7402, 48 h incubation, means ± SD, n = 3. Format: cell-based. Put shortly: (§1)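 Cells seeded at 1 × 10^4–1.2 × 10^4 per well were allowed to adhere 24 h, then exposed 48 h at 37 °C, 5% CO2 to compound at 1.25, 2.5, 5 and 10 μM (DMSO ≤0.1%). MCF-7 and HepG2 were grown in DMEM, HCT116 and BEL7402 in RPMI 1640, each with 10% FBS. MTT (final 2 mg/ml) was added for 4 h; formazan was dissolved in DMSO and read at 492 nm.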

Series [2] has as its system L02 (human normal liver cells). Description: Cytotoxicity against normal cell line L02. The series is classed as cell-based. From the text:
The lack of selectivity between normal and cancer cells is one of the main limitations of antitumor drugs ([Dy and Adjei, 2013]). Therefore, we evaluated the cytotoxicity of compounds B2, and E in normal cell lines L02 (human normal liver cells) to determine the selectivity index (ratio of cytotoxicity in L02 cells compared to that in cancer cells). […] Therefore, this compound was chosen for further biological studies.
The propidium iodide (PI) and Annexin V-FITC apoptosis detection kit were purchased from Invitrogen (Eugene, OR, United States). 3-(4,5-Dimethylthiazol-2-yl)-2,5-diphenyl-2H-tetrazolium bromide (MTT) was purchased from Sigma-Aldrich Co. (St. Louis, MO, United States). All human cell lines were used in this study, colorectal cancer cell HCT116, colorectal cancer cell SW620, breast cancer cell MCF-7, liver hepatocellular carcinoma cell BEL7402, liver hepatocellular carcinoma HepG2 and normal liver cell L02 were initially purchased from American Type Culture Collection (ATCC, Manassas, VA, United States). RPMI-1640 media, Dulbecco’s modified Eagle’s medium (DMEM), and foetal bovine serum (FBS) were provided from Gibco Company (Grand Island, NY, United States). Cell line MCF-7 and HepG2 were cultivated in DMEM containing 10% (v/v) heat-inactivated FBS, 100 units/ml penicillin and […] streptomycin (Grand Island, NY, United States). Cell lines HCT116, BEL7402, SW620, and L02 were cultivated in RPMI 1640 medium containing 10% (v/v) heat-inactivated FBS, 100 units/ml penicillin, and […] streptomycin. The cells were incubated at 37°C under a 5% CO2 and 90% relative humidity (RH) atmosphere.
Stock solutions were prepared by diluting target compounds in DMSO at concentrations (1.25, 2.5, 5, and 10 mM). The stock solution was then diluted (1.25, 2.5, 5, and 10 μM) with culture medium, and the concentration of DMSO was controlled not to exceed 0.1%.
Place the cells in a 96-well plate at an appropriate density to ensure exponential growth (1 × 10^4–1.2×10^4 cells per well) throughout the experiment, and then allow the cells to adhere for 24 h. The cells were then treated with continuous concentrations of each compound (1.25, 2.5, 5, and 10 μM) for 48 h. After 48 h of incubation, 15 μl of MTT solution was added to each well, and the final concentration was 2 mg/ml. Then incubate for another 4 h. After incubation, remove the MTT solution and add […] of DMSO to each well for staining. Shake vigorously for 10 min at room temperature to ensure complete dissolution. The optical density (OD) was read on a microplate reader (ELx 800, BioTek, Highland Park, Winooski, VT, United States) with a wavelength of 492 nm, and then the data was analyzed.

Series [3] relates to MCF-7 (human breast cancer cell line). Description: MTT anti-proliferative assay, MCF-7. The series is classed as cell-based. The note with it: Homo sapiens, MCF7, 48 h incubation, means ± SD, n = 3. Put shortly: as §1
On the technique in general: Tetrazolium dyes change colour on reduction, which living cells bring about.

The subject of series [4] is HCT116 (human colorectal cancer cell line). Description: MTT anti-proliferative assay, HCT116. The series is classed as cell-based. As to conditions: Homo sapiens, HCT-116, 48 h incubation, means ± SD, n = 3. Put shortly:
as §1

The test system of series [5] is HepG2 (human hepatocellular carcinoma cell line). Put plainly: MTT anti-proliferative assay, HepG2. The note with it: Homo sapiens, HepG2, 48 h incubation, means ± SD, n = 3. Format: cell-based. Put shortly: as §1
The subject of series [6] is SW620 (human colorectal cancer cell line). Put plainly: MTT anti-proliferative assay, SW620. The series is classed as cell-based. The note with it: Homo sapiens, SW-620, 48 h incubation, means ± SD, n = 3.

Usually IC50 stands for the concentration at which inhibition is half-maximal. Read a low IC50 as greater potency in that assay. Usually melting point stands for the temperature, or range, at which the solid turns liquid. Molecule `CC1(C)CC[C@]2(C(=O)OCc3nnc(-c4ccc(F)cc4)o3)[C@H](O)C[C@]3(C)C(=CC[C@@H]4[C@@]5(C)CC[C@H](O)[C@@](C)(C=O)[C@@H]5CC[C@]43C)[C@@H]2C1` [Compound B2, (5-(4-fluorophenyl)-1,3,4-oxadiazol-2-yl)methyl (4aR,5R,6aS,6bR,8aR,9S,10S,12aR,12bR,14bS)-9-formyl-5,10-dihydroxy-2,2,6a,6b,9,12a-hexamethyl-1,3,4,5,6,6a,6b,7,8,8a,9,10,11,12,12a,12b,13,14b-octadecahydropicene-4a (2H)-carboxylate] came in with a melting point of 122 to 124 °C. This molecule displayed an IC50 in series [1] of 2.84 ± 0.66 µM. The molecule also registered an IC50 in series [2] (Homo sapiens, normal cell line L02) of more than 10 µM. Besides, the “Selectivity index BEL7402” value in series [2] (IC50 on normal cells (L02)/IC50 on tumour cells (BEL7402)) is recorded as more than 3.52. In addition, the “Selectivity index HCT116” value in series [2] (IC50 on normal cells (L02)/IC50 on tumour cells (HCT116)) was more than 3.20. Besides, in series [2] (IC50 on normal cells (L02)/IC50 on tumour cells (SW620)), the “Selectivity index SW620” value is more than 1.29. The same molecule came in with an IC50 in series [3] of 3.99 ± 1.28 µM. 3.12 ± 0.87 µM corresponded to half-maximal inhibition in series [4] (IC50). In series [5], this molecule displayed a 50% inhibitory concentration (IC50) of 4.59 ± 1.73 µM. The IC50 in series [6] amounted to 7.75 ± 1.43 µM.
